The values that follow come from patent publication US8367729B2, “Composition with preventive or improvement effect on symptoms or diseases associated with stress-induced behavior disorders” (Suntory Holdings Limited, priority 2004, dated 2013).

For experiment [1], the system named is mice subjected to restraint stress. Briefly: Behavioral observation test (Irwin neurobehavioral test method) after 6-hour restraint stress. It counts as in vivo, male ICR mice. To be noted: conclusion of Example 3. From the text:
The experimental groups consisted of 51 two- to three-month-old male ICR mice, divided into a control diet group (27 mice) and a TG[…]-containing diet group (24 mice), with the control diet or TG[…]-containing diet shown in Table 1 being given to each group. Each group was further divided into non-restrained groups (non-restrained control diet group (9), non-restrained arachidonic acid (ARA) diet group (12)) and restrained groups (restrained control diet group (18), restrained ARA diet group (12)). The restraining was accomplished using a wire mesh restraining tube, once for a 6 hour period three weeks after the start of feeding. The control diet or TG[…]-containing diet shown in Table 1 continued to be fed to each group for the remaining experiment period. The TG[…] used for the TG[…]-containing diet was the product obtained in Example 1. Since the daily ingestion was approximately 5 g per mouse, the daily intake of TG[…] was 25 mg per mouse. Also, since the total fatty acids bonded to the arachidonic acid-containing oils or fats (triglycerides) prepared in Example 1 included 40 wt % arachidonic acid, the daily intake of arachidonic acid was 10 mg per mouse. The 6-hour restraint with a wire mesh restraining tube was immediately followed by a behavioral observation test. […]

Experiment [2] relates to IL-1β induced stress anxiety behavior models. The settings on record: administration of free arachidonic acid; J Lipid Res. 44, 1984, 2003; cited from earlier work.

As for `CCCCC/C=C\C/C=C\C/C=C\C/C=C\CCCC(=O)O` [arachidonic acid], the “overall effect on behavioral patterns altered as a result of stress” value in experiment [1] is given as “exhibits an improving effect against behavioral disorders”. Further, in experiment [2], the “effect on IL-1β induced stress anxiety behavior” value is “not effective”.
